The text below walks through data of patent US6589977B1, “Pyrrole derivatives and cell death inhibitors” (Sagami Chemical Research Center, priority 1999, dated 2003).

Molecules are shown by their SMILES.

For one assay, the system named is erythrocytes. Nature of the assay: Inhibition of hydrogen peroxide-induced hemolysis of erythrocytes. Particulars: compound 10 μM added prior to hydrogen peroxide (300 μM); after 24 hours. Type of assay: cell-based, Human. The protocol: Human blood was collected and precipitated by a centrifugation (1000 rpm, 5 min) and the precipitate containing erythrocytes was washed three times with PBS and resuspended (about 5×10^8 cells/ml) with DMEM containing 10% fetal bovine serum. Cell suspensions were dispensed into a 48-well plate to become subconfluent (about 5×10^5 cells/0.5 ml/well). When hydrogen peroxide (300 μM) was added and cultivation continued for 24 hours, more than 95% of erythrocytes underwent hemolysis and become dark and ghost-like on an observation under a light microscopy.

Assay [1] relates to cerebellar granule cells. Nature of the assay: Inhibition of MPPI-induced death of cerebellar granule cells (Parkinson model). Particulars: compound 1 μM added prior to MPPI (200 μM); 15 DIV cells; after 18 hours. Type of assay: cell-based, rats. The protocol:
According to a known method (A Dissection and Tissue Culture Manual of the Nervous System, p. 211, 1989, Alan R, Liss, Inc.), cerebellar granule cells were isolated from the cerebellum of 7 days old rats and cultured. Namely, after conducting isolation procedures described in the above literature, the resulting cells were resuspended in DMEM containing 10% fetal bovine serum, 25 mM KCl and 2 mM glutamine, and seeded in poly-lysine coated plates. After the cells were cultured in a CO2 incubator for 48 hours according to a conventional method, cytosine-1-β-D(+)-arabinofuranoside (Ara-C) (10 μM) was added thereto, and the cell was continued to culture. […]
In Parkinson's disease the dopaminergic neurons in the substantia nigra and corpus striatum in the mid-brain are selectively destroyed. Because following administration of MPTP(1-methyl-4-phenyl-1,2,3,6-tetrahydropyridine) the similar selective destruction of the dopaminergic neurons and Parkinson's disease-like symptoms are observed, the administration system of MPTP is generally employed as an in vivo model of the onset of Parkinson's disease. […]

Assay [2] has as its system Porcine ovarian granulosa cells (POGC). The assay can be described thus: Inhibition of SNP-induced apoptosis of porcine ovarian granulosa cells. Conditions: SNP 0.5 mM; cells observed after 18 hours. Type of assay: cell-based. An excerpt:
Porcine ovaries were washed with PBS buffer, and Porcine ovarian granulosa cells (POGC) were collected by aspiration from follicles with a syringe. Cell fraction was recovered as a precipitate by centrifugation of the suspension. The operation of suspending the cell fraction into PBS buffer and subjecting the resulting suspension to centrifugation was repeated three times to wash the cells. The POGC obtained as a precipitate were suspended again into a culture medium (DMEM containing 10% fetal bovine serum) and cell clumps were disrupted by pipetting. The cell suspension was passed through a mesh to remove contaminating tissue fragments, and then pipetted in 24-well plates for cell culture. The cell suspension was cultured for 2 days in a CO2 incubator according to a conventional procedure (37° C., 5% CO2). Then, the medium was refreshed to remove floating cells and the cultivation was continued further 2 to 3 days until the cells reached subconfluency (0.7 to 2×10^5 cell/well). After the attaching cells were washed with serum-free medium, they were cultured in a serum-free DMEM (containing 5 μg/mL of transferrin, and 40 ng/mL of hydrocortisone, 4 mg/mL of bovine serum albumin (BSA), 100 nM androstendione) and it was possible to continue to culture cells with relatively immature differentiation. […] The cell death was also confirmed by MTT assay. Then, various concentrations of the test compounds were added to the present culture system and the cells were observed after 18 hours.

Assay [3] relates to cerebellar granule cells. The assay can be described thus: Inhibition of bilirubin-induced death of cerebellar granule cells. Type of assay: cell-based, rats. Particulars: compound 10 μM added prior to bilirubin (10 μg/ml); after 23 hours. The protocol:
(§1) According to a known method (A Dissection and Tissue Culture Manual of the Nervous System, p. 211, 1989, Alan R, Liss, Inc.), cerebellar granule cells were isolated from the cerebellum of 7 days old rats and cultured. Namely, after conducting isolation procedures described in the above literature, the resulting cells were resuspended in DMEM containing 10% fetal bovine serum, 25 mM KCl and 2 mM glutamine, and seeded in poly-lysine coated plates. After the cells were cultured in a CO2 incubator for 48 hours according to a conventional method, cytosine-1-β-D(+)-arabinofuranoside (Ara-C) (10 μM) was added thereto, and the cell was continued to culture. The following experiments were conducted with the cells of 7 to 14 days old from the start day of the cultivation, the cells having completed neurite extension sufficiently.
Neonatal jaundice is known to induce severe brain damages by way of abnormally high concentration of bilirubin in the body. […] When the test compound 15 (10 μM) was added prior to the bilirubin addition, more than 95% of cells were alive on an observation made similarly after 23 hours.

Assay [4] deals with cerebellar granule cells. The assay can be described thus: Inhibition of glutamate-induced death of cerebellar granule cells. Conditions: compound 10 μM; glutamate (1 mM); after 6 hours. Type of assay: cell-based, rats. The protocol: as §1
Medium of cerebellar granule cells cultured for 14 days as described in Test Example 3 was replaced with DMEM containing 10% of dialyzed fetal bovine serum and subjected to a further overnight culture. […] When the test compound 15 (10 μM) coexisted, more than 95% of cells were alive on an observation even after 6 hours.

Assay [5] deals with cerebellar granule cells. Nature of the assay: Inhibition of FCCP-induced death of cerebellar granule cells. Type of assay: cell-based, rats. Particulars: compound 10 μM; FCCP (5 μM); after 2 hours. As for the experimental part:
as §1
When the test compound 15 (10 μM) coexisted prior to the FCCP addition, 80% of cells were alive on an observation similarly made after 2 hours.

For assay [6], the system named is cerebellar granule cells. Nature of the assay: Inhibition of antimycin A-induced death of cerebellar granule cells. Type of assay: cell-based, rats. Particulars: compound 10 μM; antimycin A (5 μM); after 2 hours. As for the experimental part: as §1
When the test compound 15 (10 μM) coexisted prior to the antimycin A addition, more than 95% of cells were alive on an observation made similarly after 2 hours.

Assay [7] has as its system cerebellar granule cells. The assay can be described thus: Inhibition of sodium azide-induced death of cerebellar granule cells. Type of assay: cell-based, rats. Conditions: compound 10 μM; sodium azide (10 mM); after 2 hours. The protocol: as §1, with “After the cells were cultured in a CO2 incubator for 48 hours according to a conventional method, cytosine-1-β-D(+)-arabinofuranoside (Ara-C) (10 μM) was added thereto, and the cell was continued to culture.” left out

The next assay deals with Hela 3S cells. Nature of the assay: Anti-cell death effect on Hela 3S cells cultured in Krebs Ringer Buffer. Type of assay: cell-based, human. Conditions: compound 10 μM. As for the experimental part:
Hela 3S cells (culture medium: DMEM containing 10% fetal bovine serum), a cell line derived from human cervical cancer, were seeded into multi 48 well plates and cultured in a CO2 incubator according to conventional procedures. Confirming the subconfluency of a cell culture, the medium was replaced with Krebs Ringer Buffer (120 mM NaCl, […], 1 mM KH2PO4, […], 20 mM HEPES, pH 7.4, 2.57 g/L glucose, 0.05 g/L Phenol Red) and washed three times with the same buffer and cultivation continued in the same buffer. […] When the test compound 1 (10 μM) or the test compound 15 (10 μM) was added in the present culture system and cultivation continued similarly, the proportion of normal cells increased 59% or 77% respectively, and the proportion of necrosis-like cells decreased (1% or 0%, respectively), indicating the anti-cell death effects.

Assay [8] has as its system cerebellar granule cells. Nature of the assay: Inhibition of low potassium medium-induced death of cerebellar granule cells. Type of assay: cell-based, rats. Particulars: compound 10 μM; low potassium medium (5 mM KCl); after 18 hours. As for the experimental part:
as §1
It is known that neuronal cells undergo cell death when they are cultured in a medium of low potassium (Proc. Natl. Acad. Sci. U.S.A., volume 90, p 10989, 1993). […] When the test compound 1 (10 μM), the test compound 10 (10 μM), or the test compound 15 (10 μM)coexisted, 50%, 80%, and 85% of cells were respectively alive on an observation made similarly after 18 hours.

As to `Cc1ccc2[nH]cc(-c3cn(C)cc3-c3c[nH]c4ccc(C)cc34)c2c1` [Compound 15], the inhibition of hemolysis result with erythrocytes was “almost complete inhibition of hemolysis”. In addition, the cells alive result is “more than 95%” in the assay with cerebellar granule cells [1]; “more than 95%” with cerebellar granule cells [3]; “more than 95%” in the assay on cerebellar granule cells [4]; 80% in the assay on cerebellar granule cells [5]; “more than 95%” with cerebellar granule cells [6]; “more than 95%” with cerebellar granule cells [7]. The same molecule showed a cells alive in the assay with cerebellar granule cells [8] of 85%. Besides, the “MEC (Minimum effective concentration for more than 95% of inhibition of cell death)” value in assay [2] was determined as 0.05 µM. The “proportion of necrosis-like cells” value with Hela 3S cells (after 5 hours (11% without compound)) is given as 0%. The “proportion of normal cells” value in the assay with Hela 3S cells (after 5 hours (42% normal without compound)) was found to be 77%.
